In patent US9670363B2, “Substituted anthraquinone dyes for cellular stains and enzyme detection” (Biotium, Inc., priority 2011, dated 2017):
Entries after “also recorded” stand apart in the source; their conditions may differ.

Legend:
Format in all cases: cell-based
[1] = test system: HeLa cells; assay: Staining of fixed and permeabilized cells; conditions: HeLa fixed with 4% paraformaldehyde, 0.5% Triton X-100; 3 μM DRAQ7 or 10 μM dye, 5 minutes, room temperature
Protocol: Adherent HeLa cells in 12-well plates were fixed with 4% paraformaldehyde for 15 minutes at room temperature. Cells were then permeabilized with 0.5% Triton X-100 for 10 minutes at room temperature. Three micromolar (3 μM, the manufacturer's recommended concentration) DRAQ7 or 10 μM Dye No. 7, 13, or 15 were added to the fixed and permeabilized cells in 1×PBS and incubated for 5 minutes at room temperature. The dye/PBS solution was removed and replaced with fresh 1×PBS. Fluorescence was observed using an epifluorescence microscope with the CY5 filter (FIG. 3).

[2] = test system: HeLa cells; assay: Normalizing or counting cell number; conditions: HeLa cells seeded at several densities, fixed, permeabilized, stained one hour at room temperature; LI-COR Odyssey
Protocol: HeLa cells were counted/normalized using Dye No. 1. HeLa cells were seeded in 96-well—lates at several densities per well (as indicated on the x-axis of FIG. 7). After 24 hours, cells were fixed, permeabilized, and stained with the indicated dyes for one hour at room temperature according to the protocol provided by the supplier of the DRAQ5/Sapphire700 system. Fluorescence was quantitated using a LI-COR Odyssey system. HeLa cells seeded at 25,000 cells were confluent at the time of the assay.

[3] = test system: HeLa cells; assay: Staining live cells with Dye No. 1 (fluorescence microscopy); conditions: live adherent HeLa cells; 5 μM DRAQ5 or 10 μM Dye No. 1 in 1× PBS, 37° C., 5 minutes; CY5 filter
Protocol: Live, adherent HeLa cells grown in 12-well plates were treated with either 5 μM DRAQ5 or 10 μM of Dye No. 1 in 1× phosphate buffered saline (PBS). Cells were incubated at 37° C. for 5 minutes. Fluorescence was observed using an epifluorescence microscope with the CY5 filter.

[4] = test system: HeLa cells; assay: Toxicity approximately 18 hours after staining (bright-field microscopy); conditions: live HeLa cells, 5 μM DRAQ5 or 20 μM Dye No. 1, 5 minutes at 37° C., then approximately 18 hours in fresh medium
Protocol: Dark spots are indicative of dead cells.
Live HeLa cells were treated with either 5 μM DRAQ5 or 20 μM Dye No. 1 in 1×PBS for 5 minutes at 37° C. The dye/PBS solution was removed and replaced with fresh Dulbecco/Vogt modified Eagle's minimal essential medium (DMEM) supplemented with bovine growth serum (BGS). The cells were incubated at 37° C. for approximately 18 hours, and observed under bright-field at 10× magnification (FIG. 2).

[5] = test system: HeLa cells; assay: Staining of live (unfixed) HeLa cultures; selective staining of dead cells; conditions: 1 uL of 500 uM dye stock in 100 uL medium, five minutes, room temperature
Protocol: HeLa cells were seeded at a density of 2×10^4 cells in 100 uL culture medium per well in tissue culture treated, optical bottom, black 96-well plates. One day after seeding, 1 uL of 500 uM dye stock in DMSO was added directly to the culture medium (100 uL) and mixed by trituration. The cells were incubated at room temperature for five minutes. The culture medium containing dye was removed and replaced by 100 uL phosphate buffered saline. Cellular fluorescence was imaged using an the Cy5 filter set of an Olympus IX71 epifluorescence microscope and a Q-Imaging Retiga 2000R Fast 1394 mono camera (FIG. 5). […] Probes that can selectively detect dead cells are useful in cell viability assays, which are widely practiced in drug screening.

[6] = test system: rat skeletal muscle; assay: Staining of tissue sections with Dye No. 7; conditions: acetone-fixed frozen sections of rat skeletal muscle; 10 uM, five minutes, room temperature
Protocol: Acetone-fixed frozen sections of rat skeletal muscle were purchased from Biochain Institute Inc. (Hayward, Calif.). Sections were rinsed in phosphate buffered saline and stained with 10 uM Dye No. 7 and 5 units/mL CF488A-phalloidin (Biotium Inc, Hayward, Calif.) for five minutes at room temperature. Sections were rinsed twice in phosphate buffered saline and mounted with EverBrite mounting medium (Biotium, Inc, Hayward, Calif.). Tissue fluorescence was imaged using the FITC and Cy5 filter sets of an Olympus IX71 epifluorescence microscope and a Q-Imaging Retiga 2000R Fast 1394 mono camera (FIG. 4).

Row | SMILES | nuclear staining specificity in fixed and permeabilized cells [1] | fluorescence versus number of cells stained [2] | nuclear staining of live cells [3] | toxicity (cell death) after staining [4] | staining of live versus dead cells in live (unfixed) culture [5] | nuclear staining specificity in tissue [6]
1 | O=C1c2c(O)ccc(NCCNC3=NCCN3)c2C(=O)c2c(O)ccc(NCCNC3=NCCN3)c21 [Dye No. 13] | much more specific in nuclear staining than Draq7 | – | – | – | – | –
2 | CN(C)CCNc1ccc(O)c2c1C(=O)c1c(O)ccc(NCCNC(=O)C3CCCN3)c1C2=O (centres unmarked) [Dye No. 1] | – | linear with the number of cells stained | stained the nuclei of live cells with high specificity; also recorded: stained the nuclei of live cells specifically | caused fewer cell deaths than Draq5 even at a much higher concentration; also recorded: much less toxic than Draq5 | stained the nuclei of all cells | –
3 | CN(C)CCNc1ccc(O)c2c1C(=O)c1c(O)ccc(NCCNC(=N)CCCCC(=N)NCCNc3ccc(O)c4c3C(=O)c3c(O)ccc(NCCN(C)C)c3C4=O)c1C2=O [Dye No. 7] | much more specific in nuclear staining than Draq7; also recorded: stained cell nuclei specifically | – | – | – | selectively stained the nuclei of dead cells only | excellent nuclear specificity
4 | CC(=N)NCCNc1ccc(O)c2c1C(=O)c1c(O)ccc(NCCNC(C)=N)c1C2=O [Dye No. 15] | much more specific in nuclear staining than Draq7; also recorded: stained cell nuclei specifically | – | – | – | – | –
5 | CN(C)CCNc1ccc(O)c2c1C(=O)c1c(O)ccc(NCCN(C)C)c1C2=O [Draq5, reference compound] | – | – | stained the nuclei of live cells with high specificity; also recorded: stained the nuclei of live cells specifically | more cell death than that with Dye No. 1 | – | –
